Data taken from US20100099700A1, “HYDROGENATED PYRIDO (4,3-B) INDOLES FOR TREATING AMYOTROPHIC LATERAL SCLEROSIS (ALS)” (priority 2006, published 2010).
“Also recorded” adds a separate entry of the source. Like-named read-outs stand apart in the source and are kept apart here.

Experiments:
[1] = system: transgenic Drosophila engineered to express the mutant huntingtin protein in all their neurons; conditions: historical positive control; cited from earlier work
G93AmSOD mice = experiment: G93AmSOD transgenic mouse treatment model (time to stage 2 / stage 1 disease); assay type: in vivo
Description: For this study, G93AmSOD mice were randomized into 4 treatment groups. Mice were weaned and raised on a normal diet for 85 days. Beginning at approximately day 80 or earlier if noted clinically, animals underwent daily assessment for hind limb weakness (time to stage 3 disease). In general, this occurred within a week of day 85. At 85 days, mice were given dimebon in the drinking water at the following concentrations: vehicle control (0 mg/kg/day), low dose (3 mg/kg/day), medium dose (10 mg/kg/day), and high dose (30 mg/kg/day). The drinking water was changed every 3-4 days, and each cage held approximately 3-5 animals.
Animals were weighed and analyzed daily to assess their strength and function. The day during which hind limb paralysis occurred was recorded (progression to stage 2 disease). Also recorded was the day at which the animals could no longer right themselves after 30 seconds (progression to stage 1 disease—a surrogate for mortality). Upon reaching stage 1 disease, animals were euthanized. […] When animals were no longer able to reliably reach the drinking water, they were given their daily mg/kg dose by intraperitoneal injection. Analyses were performed to compare the groups in terms of time to reach stage 2 and time to reach stage 1. As described further below, a Cox proportional hazards model including the effect of treatment group was fit.
(§1) A Cox proportional hazards regression model including the effect of treatment group was fit for the time to stage 2 for both sexes combined. In addition to testing the null hypothesis of no difference among the four groups, pair wise comparisons of each of the treated groups to the control group were tested. The model was fit using the SAS PHREG procedure. The same type of model was then fit to the data for each sex separately.
as §1, with “1” for “2”

[2] = system: transgenic Drosophila engineered to express the mutant huntingtin protein in all their neurons; experiment: Inhibition of mutant huntingtin-induced neurodegeneration of photoreceptor neurons in Drosophila eyes (pseudopupil method); assay type: in vivo; conditions: 7 days
Description: Dimebon was administered to one group of transgenic Drosophila engineered to express the mutant huntingtin protein in all their neurons as described in U.S. Provisional Patent Application No. 60/723,403. This was accomplished by cloning a foreign gene into transposable p-element DNA vectors under control of a yeast upstream activator sequence that was activated by the yeast GAL4 transcription factor. These promoter fusions were injected into fly embryos to produce transgenic animals. The foreign gene is silent until crossed to another transgenic strain of flies expressing the GAL4 gene in a tissue specific manner. The Elav>Gal4 which expresses the transgene in all neurons from birth until death was used in the experiments described. The two types of transgenic animals were crossed in order to collect enough closely matched aged controls to study. The crossed aged-matched adults (−20 per dosing group) were placed on drug containing food for 7 days. Animals were transferred to fresh food daily to minimize any effects caused by instability of the compounds. Survival was scored daily. At day 7, animals were sacrificed and the number of photoreceptor neurons surviving was counted.

[3] = system: wildtype Drosophila fruit flies; experiment: Toxicity of dimebon in wildtype Drosophila (eclosion number and timing); assay type: in vivo; conditions: daily
Description: Dimebon was evaluated for toxicity levels in wildtype Drosophila fruit flies as described in U.S. Provisional Patent Application No. 60/723,403. Dimebon was administered daily at doses ranging from 10 μM to 1 mM to explore its toxicity. An untreated control group was also studied in this experiment. The concentrations given were concentrations of dimebon in the food that animals drink/eat ad libitum. The food consisted of cornmeal, dextrose, yeast and agar.
About 500 wild type Drosophila eggs were collected on grape juice plates, washed with distilled water and transferred 100 per vial to grow at 25 degrees C. The adult progeny were scored after eclosing (emerging from the pupal case) beginning 10 days later. The criteria used for toxicity were the number (%) of animals that eclose and the time of the eclosing. For example, fewer animals may emerge from the pupal case if a drug is toxic or the same number of animals may eclose but more slowly than the untreated control group.

primary chick neurons [4] = experiment: 2% growth factor withdrawal (low serum) assay, MTT viability; assay type: cell-based, chicken
Description: (§2) Cells: Lohman Brown chicken embryo hybrids were used for the assay. One-day-old fertilised eggs were purchased from a local chicken breeder (Schropper Geflügel GmbH, Austria) and stored in the lab under appropriate conditions (12° C. and 80% humidity). At embryonic day 0 eggs were transferred into a breeding incubator and stored under permanent turning until embryonic day 8 at 37.8° C. and 55% humidity. Approximately five to six chicken embryos were used for isolation of neurons per experiment.
(§3) Eggs were wiped with 70% ethanol and cracked with large forceps at the blunt end. After decapitation of the embryo, the tissue covering the telencephalon was removed and hemispheres collected. After removing any loose tissue and remaining meningeal membranes, hemispheres were transferred into a dish containing nutrition medium. The tissue was dissociated mechanically by using a 1 ml pipette and by squeezing 3 times through a sterile nylon sieve with a pore size of 100 μm.
(§4) Poly-D-Lysine coated 96-well microtiter plates (Biocoat) were used to culture the cells. Culture medium (160 μl) containing 3×10^5 cells/ml nutrition medium (48 000 cells/well) were added to each well of a microtiter plate Plates were kept at 37° C., 95% humidity and 5% CO2 without change of media. Neurons begin to extend processes after a few hours in culture.
Low Serum Culture Conditions: The low serum medium used for the 2% growth factor withdrawal experiments described here includes EMEM with 1 g glucose/l and 2% FCS. The control medium includes DMEM with 4.5 g glucose/l and 5% Nu Serum. […]
Dimebon was applied to the cells on day 1 for the whole experimental period of 8 days. Viability of cells was determined with the MTT assay using a plate-reader (570 nM). […] Since this reaction is catalysed in living cells only the assay can be used for the quantification of cell viability. […] To estimate optical density a plate-reader (Anthos HT II) was used at wavelength 570 nM. […]

primary chick neurons [5] = experiment: 2% growth factor withdrawal (low serum) assay, AM-Calcein; assay type: cell-based, chicken; conditions: p<0.01, 8 days
Description: as §2, §3
as §4, with “culture. […]” for “culture.”

[6] = 3 mg/kg/day versus vehicle, both sexes combined
[7] = 3 mg/kg/day versus vehicle, females
[8] = 3 mg/kg/day versus vehicle, males
[9] = 3 mg/kg/day, both sexes combined
[10] = 10 mg/kg/day versus vehicle, both sexes combined
[11] = 10 mg/kg/day versus vehicle, females
[12] = 10 mg/kg/day versus vehicle, males
[13] = 10 mg/kg/day, both sexes combined
[14] = 30 mg/kg/day versus vehicle, both sexes combined
[15] = 30 mg/kg/day versus vehicle, females
[16] = 30 mg/kg/day versus vehicle, males
[17] = 30 mg/kg/day, both sexes combined

C[C@@H](N)[C@H]1CC[C@H](C(=O)Nc2ccncc2)CC1 [Y-27632]
rescue of photoreceptor neurons [1]: strongly rescuing

Cc1ccc2c(c1)c1c(n2CCc2ccc(C)nc2)CCN(C)C1.Cl.Cl [dimebon, 2,8-dimethyl-5-(2-(6-methyl-3-pyridyl)-ethyl)-2,3,4,5-tetrahydro-1H-pyrido(4,3-b)indol dihydrochloride]
Time to Stage 1: hazard ratio (Cox proportional hazards) (G93AmSOD mice; [6]): 1.112 | Time to Stage 2: hazard ratio (Cox proportional hazards) (G93AmSOD mice; [6]): 0.969 | Time to Stage 1: hazard ratio (Cox proportional hazards) (G93AmSOD mice; [7]): 1.089 | Time to Stage 2: hazard ratio (Cox proportional hazards) (G93AmSOD mice; [7]): 0.882 | Time to Stage 1: hazard ratio (Cox proportional hazards) (G93AmSOD mice; [8]): 0.967 | Time to Stage 2: hazard ratio (Cox proportional hazards) (G93AmSOD mice; [8]): 0.984 | Mean Time to Stage 1 (Expressed as a Percentage of the Mean in the Vehicle Group) (G93AmSOD mice; [9]): 98.8% | Mean Time to Stage 2 (Expressed as a Percentage of the Mean in the Vehicle Group) (G93AmSOD mice; [9]): 99.8% | Mean Time to Stage 1 (Expressed as a Percentage of the Mean in the Vehicle Group) (G93AmSOD mice; 3 mg/kg/day, females): 97.4% | Mean Time to Stage 2 (Expressed as a Percentage of the Mean in the Vehicle Group) (G93AmSOD mice; 3 mg/kg/day, females): 100.2% | Mean Time to Stage 1 (Expressed as a Percentage of the Mean in the Vehicle Group) (G93AmSOD mice; 3 mg/kg/day, males): 100.2% | Mean Time to Stage 2 (Expressed as a Percentage of the Mean in the Vehicle Group) (G93AmSOD mice; 3 mg/kg/day, males): 99.4% | Time to Stage 1: hazard ratio (Cox proportional hazards) (G93AmSOD mice; [10]): 0.738 | Time to Stage 2: hazard ratio (Cox proportional hazards) (G93AmSOD mice; [10]): 0.652 | Time to Stage 1: hazard ratio (Cox proportional hazards) (G93AmSOD mice; [11]): 0.855 | Time to Stage 2: hazard ratio (Cox proportional hazards) (G93AmSOD mice; [11]): 0.659 | Time to Stage 1: hazard ratio (Cox proportional hazards) (G93AmSOD mice; [12]): 0.524 | Time to Stage 2: hazard ratio (Cox proportional hazards) (G93AmSOD mice; [12]): 0.545 | Mean Time to Stage 1 (Expressed as a Percentage of the Mean in the Vehicle Group) (G93AmSOD mice; [13]): 103.3% | Mean Time to Stage 2 (Expressed as a Percentage of the Mean in the Vehicle Group) (G93AmSOD mice; [13]): 104.9% | Mean Time to Stage 1 (Expressed as a Percentage of the Mean in the Vehicle Group) (G93AmSOD mice; 10 mg/kg/day, females): 102.3% | Mean Time to Stage 2 (Expressed as a Percentage of the Mean in the Vehicle Group) (G93AmSOD mice; 10 mg/kg/day, females): 104.9% | Mean Time to Stage 1 (Expressed as a Percentage of the Mean in the Vehicle Group) (G93AmSOD mice; 10 mg/kg/day, males): 104.2% | Mean Time to Stage 2 (Expressed as a Percentage of the Mean in the Vehicle Group) (G93AmSOD mice; 10 mg/kg/day, males): 104.9% | Time to Stage 1: hazard ratio (Cox proportional hazards) (G93AmSOD mice; [14]): 0.505 | Time to Stage 2: hazard ratio (Cox proportional hazards) (G93AmSOD mice; [14]): 0.522 | Time to Stage 1: hazard ratio (Cox proportional hazards) (G93AmSOD mice; [15]): 0.314 | Time to Stage 2: hazard ratio (Cox proportional hazards) (G93AmSOD mice; [15]): 0.359 | Time to Stage 1: hazard ratio (Cox proportional hazards) (G93AmSOD mice; [16]): 0.647 | Time to Stage 2: hazard ratio (Cox proportional hazards) (G93AmSOD mice; [16]): 0.698 | Mean Time to Stage 1 (Expressed as a Percentage of the Mean in the Vehicle Group) (G93AmSOD mice; [17]): 104.7% | Mean Time to Stage 2 (Expressed as a Percentage of the Mean in the Vehicle Group) (G93AmSOD mice; [17]): 104.8% | Mean Time to Stage 1 (Expressed as a Percentage of the Mean in the Vehicle Group) (G93AmSOD mice; 30 mg/kg/day, females): 107.0% | Mean Time to Stage 2 (Expressed as a Percentage of the Mean in the Vehicle Group) (G93AmSOD mice; 30 mg/kg/day, females): 107.7% | Mean Time to Stage 1 (Expressed as a Percentage of the Mean in the Vehicle Group) (G93AmSOD mice; 30 mg/kg/day, males): 102.4% | Mean Time to Stage 2 (Expressed as a Percentage of the Mean in the Vehicle Group) (G93AmSOD mice; 30 mg/kg/day, males): 101.8% | rescue of photoreceptor neurons ([2]; 10 μM in food): lesser but still apparent rescue of neurons | rescue of photoreceptor neurons compared to untreated controls ([2]; 100 μM in food): statistically significant (p=0.0014) rescue of neurons | rescue of photoreceptor neurons ([2]; 1 mM in food): still appeared to cause neuronal rescue, but to a lesser extent | % of animals eclosing ([3]; 1 mM in food): decrease | timing of emergence slowed ([3]; 1 mM in food): approximately 1 day | toxicity (% of animals that eclose and time of eclosing) ([3]; doses below 1 mM in food, dihydrochloride): no significant toxicity; also recorded: did not show significant toxicity | Emax at 6.25 µM (primary chick neurons [4]; Gallus gallus, Neuron, 192 h, 6250 nM, 8 days, read-out: maximum effect in the MTT assay, above control): ~287% | Dimebon concentrations at which statistically significant differences compared to control were achieved (primary chick neurons [4]; MTT, p<0.05, 8 days): ≥ 1250 nM | effect in the MTT assay (primary chick neurons [4]; highest tested concentration 31250 nM): less than what was achieved at a concentration of 6250 nM | Dimebon concentrations at which statistically significant differences compared to control were achieved (primary chick neurons [5]): ≥ 1250 nM
